# Calls of active or inactive are those of the source. No cut-off for these calls is given here.
# Legend:
# [1] = AUC (0 to t) in Sprague-Dawley rat at 10 mg/kg, ip measured after 24 hrs by LC-MS/MS analysis; format: ADME, organism-based; conditions: in vivo
# [2] = Inhibition of PI3K/AKT/mTOR signalling pathway in human NCI-H446 cells assessed as decrease in mTOR level at 1 to 8 uM incubated for 48 hrs by Western blot analysis; format: cell-based; conditions: dose 1-8 µM
# NCI-H446 [3] = experiment: Inhibition of cell proliferation in human NCI-H446 cells incubated for 24 hrs by EdU incorporation assay; format: functional, cell-based; conditions: dose 0.375-3 µM
# NCI-H446 [4] = experiment: Induction of apoptosis in human NCI-H446 cells assessed as increase in Bax level incubated for 48 hrs by Western blot analysis; format: functional, cell-based; conditions: dose 1-8 µM
# [5] = MRT (0 to infinity) in Sprague-Dawley rat at 10 mg/kg, ip measured after 24 hrs by LC-MS/MS analysis; format: ADME, organism-based; conditions: in vivo
# [6] = Toxicity in BALB/c nude mouse xenografted with human NCI-H446 cells assessed as deleterious effect in heart at 10 to 20 mg/kg, ip for 21 days by H and E staining based analysis; format: organism-based; conditions: in vivo, 504 h, dose 10-20 mg/kg, time 21 day
# NCI-H446 [7] = experiment: Induction of apoptosis in human NCI-H446 cells assessed as formation of membrane blebbing at 1 to 8 uM incubated for 48 hrs by Geimsa staining based analysis; format: functional, cell-based; conditions: dose 1-8 µM
# NCI-H446 [8] = experiment: Induction of apoptosis in human NCI-H446 cells assessed as chromatin condensation at 1 to 8 uM incubated for 48 hrs by Geimsa staining based analysis; format: functional, cell-based; conditions: dose 1-8 µM
# NCI-H1048 [9] = experiment: Induction of mitochondrial dysfunction in human NCI-H1048 cells assessed as increase in ROS level at 1 to 8 uM incubated for 48 hrs by DCFH-DA staining based flow cytometry; format: functional, cell-based; conditions: dose 1-8 µM
# NCI-H446 [10] = experiment: Inhibition of clonogenesis in human NCI-H446 cells incubated for 14 to 21 days by crystal violet staining based analysis; format: functional, cell-based; conditions: dose 0.375-3 µM, time 14-21 day
# [11] = Inhibition of PI3K/AKT/mTOR signalling pathway in human NCI-H1048 cells assessed as decrease in mTOR level at 1 to 8 uM incubated for 48 hrs by Western blot analysis; format: cell-based; conditions: dose 1-8 µM
# NCI-H446 [12] = experiment: Induction of early apoptosis in human NCI-H446 cells incubated for 48 hrs by Annexin V-FITC/PI staining based flow cytometry; format: functional, cell-based; conditions: dose 1-8 µM
# NCI-H1048 [13] = experiment: Induction of apoptosis in human NCI-H1048 cells assessed as increase in cleaved caspase-9 level incubated for 48 hrs by Western blot analysis; format: functional, cell-based
# NCI-H1048 [14] = experiment: Induction of apoptosis in human NCI-H1048 cells assessed as increase in cleaved caspase-3 level incubated for 48 hrs by Western blot analysis; format: functional, cell-based
# [15] = Antiproliferative activity against human NCI-H196 cells incubated for 72 hrs; format: functional, cell-based; conditions: NCI-H196, 72 h
# [16] = Acute toxicity in Kunming mouse assessed as animal death at 400 mg/kg, ip; format: organism-based; conditions: in vivo
# NCI-H1048 [17] = experiment: Induction of early apoptosis in human NCI-H1048 cells incubated for 48 hrs by Annexin V-FITC/PI staining based flow cytometry; format: functional, cell-based; conditions: dose 1-8 µM
# NCI-H1048 [18] = experiment: Induction of DNA damage in human NCI-H1048 cells incubated for 48 hrs by comet assay; format: functional, cell-based; conditions: dose 1-8 µM
# [19] = Toxicity in BALB/c nude mouse xenografted with human NCI-H446 cells assessed as deleterious effect in lungs at 10 to 20 mg/kg, ip for 21 days by H and E staining based analysis; format: organism-based; conditions: in vivo, 504 h, dose 10-20 mg/kg, time 21 day
# NCI-H1048 [20] = experiment: Inhibition of cell migration in human NCI-H1048 cells incubated for 24 hrs by wound-healing assay; format: functional, cell-based; conditions: dose 0.375-3 µM
# [21] = Inhibition of PI3K/AKT/mTOR signalling pathway in human NCI-H1048 cells assessed as decrease in AKT level at 1 to 8 uM incubated for 48 hrs by Western blot analysis; format: cell-based; conditions: dose 1-8 µM
# [22] = Inhibition of PI3K/AKT/mTOR signalling pathway in human NCI-H1048 cells assessed as decrease in PI3K phosphorylation at 1 to 8 uM incubated for 48 hrs by Western blot analysis; format: cell-based; conditions: dose 1-8 µM
# [23] = Antiproliferative activity against human BEAS-2B cells incubated for 72 hrs; format: toxicity, cell-based
# NCI-H446 [24] = experiment: Induction of DNA damage in human NCI-H446 cells incubated for 48 hrs by comet assay; format: functional, cell-based; conditions: dose 1-8 µM
# NCI-H1048 [25] = experiment: Induction of apoptosis in human NCI-H1048 cells assessed as reduction in cell viability incubated for 48 hrs by Geimsa staining based analysis; format: functional
# Homo sapiens = organism: Homo sapiens; experiment: Inhibition of Topo II (unknown origin) relaxation activity using pBR322 plasmid DNA as substrate at 25 to 100 uM incubated for 30 mins in presence of ATP; conditions: dose 25-100 µM
# [26] = AUC (0 to infinity) in Sprague-Dawley rat at 10 mg/kg, ip measured after 24 hrs by LC-MS/MS analysis; format: ADME, organism-based; conditions: in vivo
# NCI-H1048 [27] = experiment: Inhibition of cell migration in human NCI-H1048 cells incubated for 24 hrs by transwell assay; format: functional, cell-based; conditions: dose 0.375-3 µM
# NCI-H446 [28] = experiment: Induction of cell cycle arrest in human NCI-H446 cells assessed as accumulation at S phase incubated for 48 hrs by PI staining based flow cytometry; format: functional; conditions: dose 1-8 µM
# NCI-H446 [29] = experiment: Antitumor activity against human NCI-H446 cells xenografted in BALB/c nude mouse assessed as decrease in tumor volume at 10 to 20 mg/kg, ip for 21 days; format: functional, organism-based; conditions: dose 10-20 mg/kg, time 21.0 day
# NCI-H1048 [30] = experiment: Inhibition of cell proliferation in human NCI-H1048 cells incubated for 24 hrs by EdU incorporation assay; format: functional, cell-based; conditions: dose 0.375-3 µM
# NCI-H1048 [31] = experiment: Induction of mitochondrial membrane permeability in human NCI-H1048 cells assessed as increase in cytochrome C release at 1 to 8 uM incubated for 48 hrs by Western blot analysis; format: functional, cell-based; conditions: dose 1-8 µM
# NCI-H446 [32] = experiment: Inhibition of cell invasion in human NCI-H446 cells incubated for 24 hrs by transwell assay; format: functional, cell-based
# [33] = Inhibition of PI3K/AKT/mTOR signalling pathway in human NCI-H1048 cells assessed as decrease in AKT level at 1.75 to 14 uM incubated for 48 hrs by Western blot analysis; format: cell-based; conditions: dose 1.75-14 µM
# [34] = Inhibition of PI3K/AKT/mTOR signalling pathway in human NCI-H1048 cells assessed as decrease in PI3K phosphorylation at 1.75 to 14 uM incubated for 48 hrs by Western blot analysis; format: cell-based; conditions: dose 1.75-14 µM
# [35] = Inhibition of PI3K/AKT/mTOR signalling pathway in human NCI-H1048 cells assessed as decrease in mTOR level at 1.75 to 14 uM incubated for 48 hrs by Western blot analysis; format: cell-based; conditions: dose 1.75-14 µM
# NCI-H1048 [36] = experiment: Induction of mitochondrial dysfunction in human NCI-H1048 cells assessed as increase in ROS level at 1.75 to 14 uM incubated for 48 hrs by DCFH-DA staining based flow cytometry; format: functional, cell-based; conditions: dose 1.75-14 µM
# NCI-H1048 [37] = experiment: Induction of mitochondrial membrane permeability in human NCI-H1048 cells assessed as increase in cytochrome C release at 1.75 to 14 uM incubated for 48 hrs by Western blot analysis; format: functional, cell-based; conditions: dose 1.75-14 µM
# NCI-H446 [38] = experiment: Induction of apoptosis in human NCI-H446 cells assessed as formation of cellular fragments at 1 to 8 uM incubated for 48 hrs by Annexin V-FITC/PI staining based flow cytometry; format: functional, cell-based; conditions: dose 1-8 µM
Compound,AUC(0-t) at 24 h [1] [ng·h/mL],inhibition [2],inhibition (NCI-H446 [3]),Activity (NCI-H446 [4]),MRT inf [5] [h],Activity [6],Activity (NCI-H446 [7]),Activity (NCI-H446 [8]),inhibition (NCI-H446 [10]),Activity (NCI-H1048 [13]),Activity (NCI-H1048 [14]),IC50 [15] [µM],Activity [16],Activity (NCI-H1048 [18]),Activity [19],inhibition (NCI-H1048 [20]),IC50 at 72 h [23] [µM],Activity (NCI-H446 [24]),Activity (NCI-H1048 [25]),inhibition (Homo sapiens),also measured
CC1CC(C)CN(Cc2cc3c(cc2-c2cc4ccc5c(c4cn2)OCO5)OCO3)C1 (stereo not given),736,Active,Dose-dependent-effect; Exhibited Similar Inhibitory Effect To That Of Etoposide At Same Concentration,Dose-dependent-effect,5.19,Non-toxic,Active,Active,Dose-dependent-effect,Dose-dependent-effect,Dose-dependent-effect,9.51,Toxic,Dose-dependent-effect,Non-toxic,Dose-dependent-effect; Exhibited Superior Inhibitory Effect Compared To Etoposide At Same Concentration,27.5,Dose-dependent-effect,Dose-dependent-effect,Active; Exhibited Stronger Activity Against Topo Ii Compared To Topo I,Activity (NCI-H1048 [9]): Active; inhibition [11]: Active; Activity (NCI-H446 [12]): Dose-dependent-effect; Exhibited Stronger Effect Than Etoposide; Activity (NCI-H1048 [17]): Dose-dependent-effect; Exhibited Stronger Effect Than Etoposide; inhibition [21]: Active; inhibition [22]: Active; Pronounced Effect Was Observed In Human Nci-H1048 Cells Than In Human Nci-H446 Cells; AUC(0-inf) [26]: 741 ng·h/mL; inhibition (NCI-H1048 [27]): Dose-dependent-effect; Displayed Stronger Inhibitory Effect Than Etoposide; Activity (NCI-H446 [28]): Dose-dependent-effect; Activity (NCI-H446 [29]): Active; Exhibited Markedly Slow Growth Rate; inhibition (NCI-H1048 [30]): Dose-dependent-effect; Compound Effect Surpassed Etoposide Effect; Activity (NCI-H1048 [31]): Active; inhibition (NCI-H446 [32]): Dose-dependent-effect; Displayed Stronger Inhibitory Effect Than Etoposide
CCC1CCCC(C)N1Cc1cc2c(cc1-c1cc3ccc4c(c3cn1)OCO4)OCO2 (stereo not given),1180,Active,Dose-dependent-effect; Exhibited Similar Inhibitory Effect To That Of Etoposide At Same Concentration,Dose-dependent-effect,6.14,Non-toxic,Active,Active,Dose-dependent-effect,Dose-dependent-effect,Dose-dependent-effect,13.9,Toxic,Dose-dependent-effect,Non-toxic,Dose-dependent-effect,> 100,Dose-dependent-effect,Dose-dependent-effect,Active; Exhibited Stronger Activity Against Topo Ii Compared To Topo I,inhibition [33]: Active; inhibition [34]: Active; inhibition [35]: Active; Activity (NCI-H1048 [36]): Active; AUC(0-inf) [26]: 1210 ng·h/mL; Activity (NCI-H1048 [37]): Active; Activity (NCI-H446 [38]): Active; Activity Similar To Etoposide; inhibition (NCI-H1048 [27]): Dose-dependent-effect; Activity (NCI-H446 [28]): Dose-dependent-effect; Activity (NCI-H446 [29]): Active; Exhibited Markedly Slow Growth Rate; inhibition (NCI-H1048 [30]): Dose-dependent-effect; Compound Effect Surpassed Etoposide Effect; inhibition (NCI-H446 [32]): Dose-dependent-effect

# Source: ChEMBL document CHEMBL6153083, “Synthesis, Structural Modification, and Antismall Cell Lung Cancer Activity of 3-Arylisoquinolines with Dual Inhibitory Activity on Topoisomerase I and II” (J Med Chem, 2025)
